# Results reported in paper PMC4389225, “Triaminopyrimidine is a fast-killing and long-acting antimalarial clinical candidate” (Nature Communications, 2015).
# Like-named read-outs stand apart in the source and are kept apart here.
# Key:
# [1] = Acute anaesthetised guinea pig CVS model, compound 2; type: in vivo
# Experimental: Protein binding (human free)
# Guinea Pig Study: Anaesthetised guinea pigs (n=2) were treated with compound 2 at 5 mg/kg followed by 15 mg/kg (AstraZeneca, Alderley Park, UK) using methodology based on that used to assess compound 12 at Biotrial, France. Haemodynamic and electrocardiography […]
# achieved with compound 2 in an early mouse model once exposures reached approximately 9 μM Cmax (total). Consequently, compound 2 was classified as having no therapeutic window preclinically in this model. […]
# [2] = Dog plasma PK, IV and oral; type: in vivo; settings: male, Beagle; for clearance / AUC(0-inf) / AUC(0-t) / Cmax / MRT / half-life / Vd / bioavailability: dog; for half-life: read-out: t½ (converted); for Vd: read-out: Vss
# Experimental: Pharmacokinetic studies to estimate the blood levels of compounds in dogs. PK in fasted, male Beagle dogs (n = 2 per dose) was studied after a single dose administered by intravenous infusion for 15 min (IV) or by an oral route (PO). Solution formulation containing 10% ethanol, 30% PEG 400, 60% saline was used for IV administration and a suspension in 0.5% w/v HPMC with 0.1% v/v Tween 80 was used for oral administration.
# 48 hours after an oral dose of 5 mg/kg. Blood samples were centrifuged and plasma samples were analyzed by LC/MS/MS. Dog PK profiles are shown in supplementary Fig. 11 and PK parameters are described in supplementary Table 9.
# Dd2 bc-1 ELQ-300 = test: [3H]-hypoxanthine incorporation assay, Dd2 bc-1 ELQ-300 resistant; type: cell-based, Plasmodium falciparum; settings: Plasmodium falciparum, DD2
# Experimental: Supplementary Table 3: Compound 9 and 12 retain their activity against Pf strains harbouring mutations to novel antimalarial agents in clinical development. Compound 9 and 12 were tested for their antiplasmodial activity against a panel of Pf strains known to harbour mutations conferring resistance to novel agents under clinical development. Parasite growth inhibition is measured using the [3H]-hypoxanthine incorporation assay. IC50s are established for each strain (n ≥2) and compared to the IC50 of Dd2 (standard pan-resistant […]
# Pf = test: Predicted human efficacy (parasite load reduction); set-up: species or system Plasmodium falciparum
# Experimental: The predicted human exposure after a single dose of 260 mg is likely to sustain the maximum kill rate observed in the Pf/SCID model for 4–6 days to achieve >3-log reduction in parasitemia (Supplementary Note 6, Supplementary Figs 12 and 13, and Supplementary Table 12). A patient with clinical symptoms of uncomplicated malaria may have 1–2% parasitemia in blood, which is equivalent to 11–12 log parasites in total, assuming 13 log erythrocytes in human blood. At a dose of 260 mg, compound 12 is predicted to maintain a constant kill rate over two life cycles (96 h) of the parasite to yield a 3 to 4-log reduction in the total parasite load. Therefore, a single-dose treatment with~500 mg might result in >8-log reduction in the parasite load. In a combination-based malaria therapy that is clinically practiced, an additive or synergistic effect of the partner drug with compound 12 is predicted to cure patients following a single-dose treatment.
# Prediction of human PK profile. The predicted human CL and Vss estimates could be used for predicting human PK with a one compartment distribution. However, rat and dog IVPK profiles indicated a two compartment distribution. Parameters for the two compartment distribution in human were predicted by Wajima transformation8 of rat and dog IVPK […]
# CLd, Vt and Vc estimates, assuming similar Ka (0.3/h) and F (0.7) as observed in rats (supplementary Fig. 12 ).
# Predicted human PK parameters are shown in supplementary Table 12. Human CL estimates predicted by the FCIM method and IVIVE (3.8 ml/min/kg) were identical. The […]
# Human efficacy was predicted after treatment of 70 kg adult with a single 260 mg dose, assuming 2% parasitemia at the onset of treatment and assuming one compartment distribution of 12 in humans (supplementary Fig. 13). Similar efficacy was predicted if 12 was distributed in two compartments.
# [3] = Blood-plasma ratio, mouse; type: in vitro ADME
# [4] = Plasma protein binding, guinea pig
# [5] = plasma, iv, 2.1 mg/kg, IV 2.1 mg kg-1, Dog 1
# [6] = plasma, iv, 2.1 mg/kg, IV 2.1 mg kg-1, Dog 2
# [7] = plasma, iv, 2.1 mg/kg, IV 2.1 mg kg-1, Mean
# [8] = plasma, po, 5.1 mg/kg, Oral 5.1 mg kg-1, Dog 1
# [9] = plasma, po, 5.1 mg/kg, Oral 5.1 mg kg-1, Dog 2
# [10] = plasma, po, 5.1 mg/kg, Oral 5.1 mg kg-1, Mean
smiles,measurement,setting,value
Cc1cc(Nc2ncc(N3CCN(C)CC3)c(N3CCCC3)n2)ccn1 [compound 2],A - Plasma Cmax Total,[1]; 5 mg/kg i.v.,4530 nM
same,Safety Margin (A / B),[1]; 5 mg/kg i.v.,None
same,Summary of clinical signs and effects,[1]; 5 mg/kg i.v.,Haemodynamic Effects
same,A - Plasma Cmax Total,[1]; 15 mg/kg i.v.,20420 nM
same,Safety Margin (A / B),[1]; 15 mg/kg i.v.,None
same,Summary of clinical signs and effects,[1]; 15 mg/kg i.v.,Haemodynamic & ECG Effects
"Cc1nc(Nc2ncc(N3CCN(C)[C@H](C)C3)c(Nc3cc(C)n(C)n3)n2)cc(C2CC2)c1F [compound 12, (R)-N2-(4-cyclopropyl-5-fluoro-6-methylpyridin-2-yl)-N4-(1,5-dimethyl-1H-pyrazol-3-yl)-5-(3,4-dimethylpiperazin-1-yl)pyrimidine-2,4-diamine]",clearance,"[2]; blood, iv, 2.1 mg kg-1, Dog, read-out: Observed blood CL",19 mL/min/kg
same,AUC(0-inf),[2]; [5],2.72 µM·h
same,AUC(0-t),[2]; [5],2.16 µM·h
same,Cmax,[2]; [5],641 nM
same,MRT,[2]; [5],15.1 h
same,half-life,[2]; [5],11 h
same,AUC(0-inf),[2]; [6],3.47 µM·h
same,AUC(0-t),[2]; [6],2.68 µM·h
same,Cmax,[2]; [6],515 nM
same,MRT,[2]; [6],15.9 h
same,half-life,[2]; [6],11 h
same,AUC(0-inf),[2]; [7],3.1 µM·h
same,AUC(0-t),[2]; [7],2.42 µM·h
same,Cmax,[2]; [7],578 nM
same,MRT,[2]; [7],15.5 h
same,half-life,[2]; [7],11 h
same,clearance,"[2]; plasma, iv, 2.1 mg/kg, plasma, IV 2.1 mg kg-1, Dog 1, read-out: CL",27.5 mL/min/kg
same,Vd,"[2]; plasma, iv, 2.1 mg/kg, plasma, IV 2.1 mg kg-1, Dog 1",24.9 L/kg
same,clearance,"[2]; plasma, iv, 2.1 mg/kg, plasma, IV 2.1 mg kg-1, Dog 2, read-out: CL",21.3 mL/min/kg
same,Vd,"[2]; plasma, iv, 2.1 mg/kg, plasma, IV 2.1 mg kg-1, Dog 2",20.4 L/kg
same,clearance,"[2]; plasma, iv, 2.1 mg/kg, plasma, IV 2.1 mg kg-1, Mean, read-out: CL",24.4 mL/min/kg
same,Vd,"[2]; plasma, iv, 2.1 mg/kg, plasma, IV 2.1 mg kg-1, Mean",22.7 L/kg
same,AUC(0-inf),[2]; [8],5.87 µM·h
same,AUC(0-t),[2]; [8],5.27 µM·h
same,Cmax,[2]; [8],300 nM
same,bioavailability,[2]; [8],88.1%
same,half-life,[2]; [8],15.2 h
same,AUC(0-inf),[2]; [9],8.28 µM·h
same,AUC(0-t),[2]; [9],7.48 µM·h
same,Cmax,[2]; [9],603 nM
same,bioavailability,[2]; [9],96.4%
same,half-life,[2]; [9],17 h
same,AUC(0-inf),[2]; [10],7.08 µM·h
same,AUC(0-t),[2]; [10],6.38 µM·h
same,Cmax,[2]; [10],452 nM
same,bioavailability,[2]; [10],92.3%
same,half-life,[2]; [10],16.1 h
same,Tmax,"[2]; plasma, Oral 5.1 mg kg-1, Dog 1",2 h
same,IC50,Dd2 bc-1 ELQ-300,8.2 nM
same,predicted reduction in the total parasite load,"Pf; 260 mg, two life cycles (96 h)",3 to 4 log
same,predicted reduction in parasitemia,"Pf; single dose of 260 mg, 4–6 days",> 3 log
same,predicted reduction in the parasite load,Pf; single dose ~500 mg,> 8 log
same,B:P ratio,[3],1.2
same,Plasma protein binding (% free),[4]; Guinea pig,5.5 % free
same,fraction unbound,"[4]; guinea pig, plasma",0.055
